Biological target: T1, Thromboxane A2 receptor (Homo sapiens, UniProt P21731)
T1 sequence (P21731 whole entry): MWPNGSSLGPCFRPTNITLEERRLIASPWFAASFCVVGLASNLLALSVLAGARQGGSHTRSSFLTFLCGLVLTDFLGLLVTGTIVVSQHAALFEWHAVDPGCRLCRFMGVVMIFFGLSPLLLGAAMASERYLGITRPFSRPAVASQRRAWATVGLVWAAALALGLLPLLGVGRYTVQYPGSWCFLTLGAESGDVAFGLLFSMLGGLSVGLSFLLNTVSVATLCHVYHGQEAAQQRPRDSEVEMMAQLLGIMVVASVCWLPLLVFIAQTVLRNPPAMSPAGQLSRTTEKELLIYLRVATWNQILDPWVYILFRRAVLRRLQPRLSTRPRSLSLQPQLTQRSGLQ
Experiment: ChEBML_209427
Description: Inhibitory activity against U-46,619-induced responses in human platelet aggregation (Thromboxane A2 alpha receptor)

SMILES	IC50 [µM]
COc1cc(CC2NCCc3c2cc(O)c(O)c3C(F)(F)F)cc(OC)c1OC (stereo unspecified) [TMQ, 5-TrifluoroMe]	832
COc1cc(CC2NCCc3c(F)c(O)c(O)c(F)c32)cc(OC)c1OC (stereo unspecified) [TMQ, 5,8-Difluoro]	158

Results, then the molecule that gave them:

IC50 [µM]	SMILES
3.09	COc1cc(CC2NCCc3cc(O)c(O)c(I)c32)cc(OC)c1OC (stereo unspecified) [TMQ, 8-Iodo]
120	COc1cc(CC2NCCc3c2cc(O)c(O)c3I)cc(OC)c1OC (stereo unspecified) [TMQ, 5-Iodo]

Biological target: not listed separately
Experiment: Inhibitory activity against U-46,619-induced responses in human platelet aggregation (Thromboxane A2 alpha receptor)

SMILES	IC50 [µM]
COc1cc(C[C@H]2NCCc3cc(O)c(O)c(F)c32)cc(OC)c1OC [TMQ, R-(-)-8-Fluoro]	2.46
COc1cc(C[C@@H]2NCCc3cc(O)c(O)c(F)c32)cc(OC)c1OC [TMQ, S-(+)-8-Fluoro]	39.8
